Reference: US7704699B2, “Method for the characterization of the three-dimensional structure of proteins employing mass spectrometric analysis and computational feedback modeling” (H-NU OPS, Inc., priority 1993, dated 2010)

Tested on: cytochrome c; horse tuna and yeast
Assay: ES-MS study of non-covalent interactions of crown ethers with three types of cytochrome c (rank order)
Type: binding
Settings: rank among the three crown ethers, all three cytochrome c types
Procedure: […]; horse tuna and yeast, utilizing the ES probe 50 and method of this invention.
More particularly, the experiments showing binding of crowns to cytochrome c were done by adding 1, 2, and 3 mol ratios to a 70 pmol/μL mixture of the three different cytochrome c's. The solutions were prepared with equal parts of methanol/water with 1% acetic acid. Typical sample conditions were, 95° C., 2 μL/min, 4000 VDC on the syringe, 170 VDC on the capillary tube, and 60 VDC on the skimmer.

| Compound | relative tightness of binding to cytochrome c |
| --- | --- |
| C1CCC2OCCOCCOC3CCCCC3OCCOCCOC2C1 (centres unmarked) [Dicyclohexano-18-Crown-6, dicyclohexano-18-crown-6] | binding the most tightly |
| c1ccc2c(c1)OCCOCCOc1ccccc1OCCOCCO2 [Dibenzo-18-Crown-6, dibenzo-18-crown-6] | binding the least tightly |
